In data set [1] the test system is AsPC-1 cells. Description: Hemi-splenectomy PDAC liver metastasis model. The data set is classed as in vivo, athymic NCr-nu/nu mice. The settings on record: 5 mg/ml, 200 μl IP every other day. Here is the method: Therefore, the inventors tested 4-HAP in a mouse model for PDAC metastasis. Hemi-splenectomies with 4-HAP pre-treated metastatic AsPC-1 cells were performed on nude mice which were subsequently divided into three groups: control, PBS (200 μl PBS IP injections, every other day), and 4-HAP (5 mg/ml, 200 μl IP injections, every other day). Mice were harvested at 5-weeks post-surgery, when the first mouse expired. Metastasis to the liver was observed and quantified by an in-house Matlab script that determined surface area tumor coverage.
Hemi-splenectomies were performed on athymic NCr-nu/nu mice (Charles River Laboratories) with low passage AsPC-1 cells as previously described. In short, laparotomies were performed on anesthetized mice in which the upper pole of a divided spleen was reinserted into the peritoneum while 1×10^7 AsPC-1 cells prepared in phosphate buffered saline were injected into the lower splenic pole, chased by an equal volume of phosphate buffered saline. The pancreas and splenic vessels were ligated and the peritoneum was closed.
AsPC-1 cells were pretreated with 50 μM 4-HAP or PBS 24 hr prior to injection during hemisplenectomies. […]
Quantifications of mouse livers were performed using a custom-designed Matlab script. […] The percent coverage of tumor was calculated.

Data set [2] has as its system ASPC-1 cells. The experiment in a line: Viability assay. Type of data set: cell-based, human. The settings on record: 50 nM, 500 nM.
The next data set relates to HL-60 cells. The experiment in a line: Micropipette aspiration cortical tension. The settings on record: 500 nM, 1 hr. The data set is classed as cell-based, human. The procedure: The instrumental and experimental setups have been previously described (Effler J C, et al., 2006; Kee Y-S, et al., 2013). Micropipette aspiration assays were all carried out in growth media with 0.1% DMSO. For cortical tension measurements of Dictyostelium cells, pressure was applied to the cell cortex with a micropipette (2-3 m radius, Rp) to the equilibrium pressure (ΔP) where the length of the cell inside the pipette (Lp) was equal to Rp. The effective cortical tension (Teff) was calculated by applying the Young-Laplace equation: ΔP=2Teff(1/Rp-1/Rc), where Rc is the radius of the cell and ΔP is the equilibrium pressure when Lp=Rp (Derganc J, et al., 2000; Octtaviani E, et al., 2006). For creep tests on mammalian strains, a constant aspiration stress was applied over 60 s. The micropipette radius was 3.5-4.5 m. For quantification, the Lp/Rp ratio values was measured every two seconds and plotted as a function of time. A10.7 and HEK293 cells could only be aspirated at a low pressure range (0.15 nN/μm^2), while HPDE, ASPC-1, and HL-60 cells could be aspirated at higher pressure ranges (0.25 nN/μm^2) because they were stiffer.

In data set [3] the test system is Panc10.05 tissue spheroids. The experiment in a line: Tissue spheroid dissemination and cortical actin structure. Type of data set: cell-based, human. The procedure: Tissue spheroids were grown by plating Panc10.05 cells on a drop of Matrigel (Becton-Dickinson) in an 8-well slide chamber (6,500 cells per well) and grown in RPMI 1640 media (2% serum, 2% matrigel, and 10 ng/ml EGF). Spheroids were grown for 14 days with regular media changes, then aspirated off the surface of the matrigel, washed with ice-cold PBS with mild centrifugation ([…], 5 min). For all 2D spreading assays, spheroids were then plated on 50 µg/ml collagen-coated 8-well coverslips (MatTek) and incubated for 48 hrs in complete PANC media with 500 nM 4-HAP or PBS control. For 3D invasion assays, spheroids were resuspended in a 1.5 mg/ml collagen solution (Life Technologies) and then plated in 8-well chambered coverslips. […] All spheroid samples were fixed in 4% paraformaldehyde for 15 min at 25° C. and permeabilized in 0.1% Triton X-100 for 15 min at 25° C. The actin cytoskeleton was visualized with rhodamine-phalloidin ([…]) for 30 min. Two-dimensional spreading was visualized with Olympus Spinning disk microscope (40× oil objective, 1.30NA) or Nikon-NSIM (100× objective, 1.4NA) with an Andor EMCCD camera controlled by NIS-Elements software. Three-dimensional invasion through collagen was visualized with an Olympus Spinning Disk microscope (20× air, 0.4NA).
Quantification of 2D spheroids plated on a thin layer of collagen was performed using a custom-designed Matlab script (Mathworks, Natick, Mass.). A maximum intensity projection of 20 z-slices was extracted from each of the images and converted to 16-bit grayscale before enhancing the pixel intensity (Matlab command: histeq). The enhanced image was then segmented into foreground and background using the Chan-Vese method (activecountour), followed by filtering of small regions (bwareaopen), and morphological erosion (imerode). The boundary from this object was then obtained (bwboundary) and average background intensity was subtracted. This method was used for more than 80% of the images. […] This option allowed the user to select a region of interest surrounding the outer edge of the spheroid (roipoly). Anything outside of this boundary was masked and subsequently not considered (regionfill). Following this, a similar binarization/background subtraction regime was implemented on the unmasked region and the boundary was traced.
For each point along the boundary, a line perpendicular to the edge was computed and the intensity along this line was used to linearize the cortex. The resultant matrix was converted into a grayscale image. The Hough Transform was used to determine the continuity of the actin belt along the edge of the cortex. Linearized cortex images were binarized using a threshold chosen to best differentiate belt from non-belt for each set of images (imbinarize), followed by filtering of small regions (bwareaopen), and morphological dilation (imdilate). The Hough Transform was performed on this image (hough), and Hough peaks and lines identified (houghpeaks, houghlines). These were used to create a continuity score defined by (E Hough line lengths)/(number of lines+length of image). In this metric, higher scores indicate a more continuous actin belt at the cortex. Additionally, we computed: a coarseness index of the cortex (std2) to describe actin distribution, the percentage of white pixels of the binarized image to characterize actin belt thickness, and the ratio of white pixels to gray pixels (greater than 0.15) to describe the distribution of fluorescence.

For `CC(=O)c1ccc(O)cc1` [4-HAP, 4-hydroxyacetophenone], in the data set on AsPC-1 cells [1], the “tumor formation (liver weights and tumor coverage)” value is given as “reduction in tumor formation”. Besides, the “reduction in surface tumor load (liver tumor coverage)” value in the data set with AsPC-1 cells [1] (5-weeks post-surgery) is listed as 50%. Also, in the data set with ASPC-1 cells [2], the “viability vs DMSO control” value is given as “no difference over DMSO control”. Besides, the cortical tension result in the data set with HL-60 cells is given as “does not alter the cortical tension”. For the same compound, the dissemination from spheroids entry in data set [3] (NMIIA knockdown, 3D collagen I, 24 hours) is recorded as “decreased”; in data set [3] (control knockdown, 3D collagen I, 24 hours) it was “decreased”; in data set [3] (myosin IIC-depleted spheroids) it was “no effect was observed”. For the same compound, the “actin band continuity score” value in data set [3] (control spheroids) is “decreased upon treatment with 4-HAP”; in data set [3] (shIIA spheroids, p=0.01) it was “increased significantly”. In addition, the “cortex coverage by actin bands” value is listed as “decreased cortex coverage” in data set [3] (control spheroids), “the coverage increased” in data set [3] (myo IIA knockdowns) and “unaffected by the treatment of 4-HAP” in data set [3] (myo IIC knockdowns). Also, the “increase in median percentage staining of actin at tissue edge” value in data set [3] (myosin IIA knockdown spheroids, 2D) is given as 2 fold. The actin belt formation entry in data set [3] (when myosin IIC is present) was “Actin belts are formed”.

The values are drawn from patent US11834401B2, “Treating and preventing diseases by modulating cell mechanics” (THE JOHNS HOPKINS UNIVERSITY, priority 2013, dated 2023).
